One may read the IC50 as the concentration that inhibits the measured activity by half. A lower IC50 goes with greater potency in that assay.

These results are taken from US10908153B2, “Pseudomonas aeruginosa inhibitor compounds” (priority 2015, dated 2021).

For this test, the target named is T1, PscE-PscG interaction (Pseudomonas aeruginosa, UniProt P95435+Q9I317).
T1 construct: made in house; host or cells: E. coli
Briefly: ELISA test of inhibition of the PscE-PscG interaction. In kind it is binding. The note with it: for PscE-PscG at 50 μM: inhibition by new synthetic analogues at 50 μM, PscG 2.2 μM, PscE solution 3 μM; for inhibition at 50 µM: 4 h, read-out: PscE-PscG at 50 μM; for inhibitory effect compared with clioquinol: ELISA test, 50 μM, Table 2. As for the experimental part:
50 μL of PscG protein at 1 μM (for screening libraries) or 2.2 μM (for screening newly synthesized molecules) is incubated in a NUNC 96-well plate for 8 h at 4° C. The wells are washed three times with 200 μL of 1× PBS/0.1% Tween20®. The wells are treated overnight at 4° C. with 200 μL of a 5% milk solution in 1× PBS/0.1% Tween20®. The solution is then discarded, and the plate is drained dry.
The test is carried out as follows:
Negative control (lowest signal level): 100 μL of buffer ([…] Tris-HCl, 250 mM NaCl, pH 8.0);
Positive control (highest signal level): 50 μL of buffer and 50 μL of a test solution at 25 (library screening) or 3 μM (screening of analogue molecules) of the PscE protein;
Test of the inhibitors: 40 μL buffer, 50 μL of a solution at 25 μM (library screening) or 3 μM (screening of analogue molecules) of PscE protein and 10 μL of the solution containing the inhibitor to be tested.
The solutions are left for 4 h at room temperature.
The wells are washed three times with 200 μL of 1× PBS/0.1% Tween20®. The anti-PscE antibody diluted to 1:2,000 in 1× PBS/0.1% Tween20®, 50 μL, is added and the whole is left 2 h at room temperature. The wells are washed three times with 200 μL of 1× PBS/0.1% Tween20®. The HRP-conjugated anti-mouse antibody is diluted to 1:5,000 in 1× PBS/0.1% Tween20® and 50 μL is added and left for 2 h at room temperature. The wells are washed three times with 200 μL of 1× PBS/0.1% Tween20®.
The ELISA test is developed by adding 50 μL of TMB reagent followed by incubation for 15 minutes at room temperature in the dark. The reaction is stopped by adding 50 μL of 2N HCl. The plate is read at 450 nm.
(In general: In an ELISA, binding on a coated surface is turned into a signal by an enzyme label.)

T1 sequence (Q9I317 whole entry): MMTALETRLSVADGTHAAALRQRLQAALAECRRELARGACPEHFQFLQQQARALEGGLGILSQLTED
T1 sequence (P95435 whole entry): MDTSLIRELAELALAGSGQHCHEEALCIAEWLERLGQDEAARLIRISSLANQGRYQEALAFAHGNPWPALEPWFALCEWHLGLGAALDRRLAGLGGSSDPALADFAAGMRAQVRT

For the molecule `[N-]=[N+]=NCCCCOCCCc1ccc[n+](CCCCCCOCCCc2cccnc2)c1` [molecule 18, 3-(3-(4-azidobutoxy)propyl)-1-(6-(3-(pyridin-3-yl)propoxy)hexyl)pyridinium chloride], the “PscE-PscG at 50 μM” value is listed as “no inhibition”.
As for `CC(=O)Oc1c(-c2cn(CCCCCCOCCCc3ccc[n+](CCCCCCCCCCOCCCc4cccnc4)c3)nn2)cc(Cl)c2cccnc12` [molecule 45, 3-(3-(6-(4-(8-acetoxy-5-chloroquinolin-7-yl)-1H-1,2,3-triazol-1-yl)hexyloxy)propyl)-1-(10-(3-(pyridin-3-yl)propoxy)decyl)pyridinium chloride], the inhibition at 50 µM came to 71.6% and the “inhibitory effect compared with clioquinol” value is listed as “superior to clioquinol”.
Consider `CC(=O)Oc1c(-c2cn(CCCCCCCCOCCCc3ccc[n+](CCCCCCCCOCCCc4cccnc4)c3)nn2)cc(Cl)c2cccnc12` [molecule 43, 3-(3-(8-(4-(8-acetoxy-5-chloroquinolin-7-yl)-1H-1,2,3-triazol-1-yl)octyloxy)propyl)-1-(8-(3-(pyridin-3-yl)propoxy)octyl)pyridinium chloride], for which the inhibition at 50 µM turned out to be 29.5%.
Consider `O=C(O)CN(CCN(CC(=O)O)CC(=O)O)CCN(CC(=O)O)CC(=O)O` [Pentetic acid, reference compound], for which, under “primary screening of libraries, 50 μm compound, PscG 1 μM, PscE solution 25 μM”, the “% inhibition PscE-PscG at 50 μm” value was 94%.
Regarding `CC(=O)Oc1c(-c2cn(CCCCCCCCCCOCCCc3ccc[n+](CCCCCCOCCCc4cccnc4)c3)nn2)cc(Cl)c2cccnc12` [molecule 42, 3-(3-(10-(4-(8-acetoxy-5-chloroquinolin-7-yl)-1H-1,2,3-triazol-1-yl)decyloxy)propyl)-1-(6-(3-(pyridin-3-yl)propoxy)hexyl)pyridinium chloride], the “PscE-PscG at 50 μM” value is “no inhibition”.
With `Oc1c(I)cc(Cl)c2cccnc12` [Clioquinol, reference compound], the 50% inhibitory concentration (IC50) amounted to 5 µM. For the same molecule, the “PscE-PscG at 50 μM” value (240 min) is recorded as 45.2%. In addition, for the setting “read-out: % inhibition PscE-PscG at 50 μm”, the inhibition at 25 µM amounted to 93.7%.
Turning to `[N-]=[N+]=NCCCCCCCCOCCCc1ccc[n+](CCCCCCCCCCOCCCc2cccnc2)c1` [molecule 29, 3-(3-(8-azidooctyloxy)propyl)-1-(10-(3-(pyridin-3-yl)propoxy)decyl)pyridinium chloride], the inhibition at 50 µM turned out to be 24%.
Consider `[N-]=[N+]=NCCCCCCCCCCCCOCCCc1ccc[n+](CCCCOCCCc2cccnc2)c1` [molecule 26, 3-(3-(12-azidododecyloxy)propyl)-1-(4-(3-(pyridin-3-yl)propoxy)butyl)pyridinium chloride], for which the inhibition at 50 µM came out at 44.2%.
Regarding `[N-]=[N+]=NCCCCCCCCCCCCOCCCc1ccc[n+](CCCCCCCCCCOCCCc2cccnc2)c1` [molecule 33, 3-(3-(12-azidododecyloxy)propyl)-1-(10-(3-(pyridin-3-yl)propoxy)decyl)pyridinium chloride], the inhibition at 50 µM worked out at 54.2% and the “inhibitory effect compared with clioquinol” value was “superior to clioquinol”.
Regarding `[N-]=[N+]=NCCCCCCOCCCc1ccc[n+](CCCCCCCCCCOCCCc2cccnc2)c1` [molecule 27, 3-(3-(6-azidohexyloxy)propyl)-1-(10-(3-(pyridin-3-yl)propoxy)decyl)pyridinium chloride], the inhibition at 50 µM amounted to 39.6%.
On to `CC(=O)Oc1c(-c2cn(CCCCOCCCc3ccc[n+](CCCCCCOCCCc4cccnc4)c3)nn2)cc(Cl)c2cccnc12` [molecule 36, 3-(3-(4-(4-(8-acetoxy-5-chloroquinolin-7-yl)-1H-1,2,3-triazol-1-yl)butoxy)propyl)-1-(6-(3-(pyridin-3-yl)propoxy)hexyl)pyridinium chloride], for which the inhibition at 50 µM turned out to be 54.2% and the “inhibitory effect compared with clioquinol” value was “superior to clioquinol”.
For `CC(=O)Oc1c(-c2cn(CCCCCCCCOCCCc3ccc[n+](CCCCCCCCCCOCCCc4cccnc4)c3)nn2)cc(Cl)c2cccnc12` [molecule 47, 3-(3-(8-(4-(8-acetoxy-5-chloroquinolin-7-yl)-1H-1,2,3-triazol-1-yl)octyloxy)propyl)-1-(10-(3-(pyridin-3-yl)propoxy)decyl)pyridinium chloride], the “PscE-PscG at 50 μM” value is reported as “no inhibition”.
In the case of `CC(=O)Oc1c(-c2cn(CCCCCCCCCCCCOCCCc3ccc[n+](CCCCCCCCOCCCc4cccnc4)c3)nn2)cc(Cl)c2cccnc12` [molecule 49, 3-(3-(12-(4-(8-acetoxy-5-chloroquinolin-7-yl)-1H-1,2,3-triazol-1-yl)dodecyloxy)propyl)-1-(8-(3-(pyridin-3-yl)propoxy)octyl)pyridinium chloride], the inhibition at 50 µM is 69.8% and the “inhibitory effect compared with clioquinol” value is reported as “superior to clioquinol”.
As to `[N-]=[N+]=NCCCCCCOCCCc1ccc[n+](CCCCCCCCCCCCOCCCc2cccnc2)c1` [molecule 28, 3-(3-(6-azidohexyloxy)propyl)-1-(12-(3-(pyridin-3-yl)propoxy)dodecyl)pyridinium chloride], the inhibition at 50 µM was 37.8%.
